Reference: patent US20070270488A1, “Treatment and Assays” (The Queen's University of Belfast, priority 2004, published 2007)

Legend:
[1] = tested on: HCT116 p53^+/+ parental cells; test: MTT cytotoxicity assay, HCT116 p53^+/+ parental cells; format: cell-based, human; conditions: HCT116 p53^+/+ parental, 72 h, read-out: IC50(72 h)
Experimental: (§1) Tissue culture. HCT116 p53^+/+ and p53^−/− isogenic human colon cancer cells were kindly provided by Professor Bert Vogelstein (John Hopkins University, Baltimore, Md.). Drug-resistant HCT116 sub-lines were developed in the inventors' laboratory by repeated exposure to stepwise increasing concentrations of 5-FU, CPT-11 or oxaliplatin over a period of approximately ten months. Parental and drug-resistant HCT116 cell lines were grown in McCoy's 5A medium supplemented with 10% dialysed foetal calf serum (FCS), 50 μg/ml penicillin-streptomycin, 2 mM L-glutamine and 1 mM sodium pyruvate (all from GIBCO Invitrogen Corporation, Paisley, Scotland) and maintained at 37° C. in a humidified atmosphere containing 5% CO2. 5-FU-resistant p53^+/+ and p53^−/− HCT116 cells were maintained in the presence of 2 μM and 4 μM 5-FU respectively. CPT-11-resistant p53^+/+ and p53^−/− HCT116 cells were maintained in the presence of 1 μM and 3 μM CPT-11 respectively. […] Prior to each experiment, resistant sub-lines were cultured in the absence of drug for 48 hours.
(§2) Cytotoxicity studies. Cells were seeded at 2000 cells per well in 96-well microtiter plates. After 48 hours, cells were treated with a range of concentrations of 5-FU, CPT-11 or oxaliplatin.
(§3) After 72 hours, 25 μl of MTT dye (5 mg/ml) was added to each well and the plates were incubated at 37° C. for 3 hours. Dark-blue formazan crystals formed by live cells were dissolved in 200 μl of DMSO and absorbance in individual wells was determined at 570 nm using an Emax precision microplate reader (Molecular Devices, Sunnyvale, Calif.).

[2] = tested on: p53^+/+ 5-FU-resistant HCT116 cells; test: MTT cytotoxicity assay, p53^+/+ 5-FU-resistant HCT116 cells; format: cell-based, human
Experimental: (§4) Tissue culture. HCT116 p53^+/+ and p53^−/− isogenic human colon cancer cells were kindly provided by Professor Bert Vogelstein (John Hopkins University, Baltimore, Md.). […] Parental and drug-resistant HCT116 cell lines were grown in McCoy's 5A medium supplemented with 10% dialysed foetal calf serum (FCS), 50 μg/ml penicillin-streptomycin, 2 mM L-glutamine and 1 mM sodium pyruvate (all from GIBCO Invitrogen Corporation, Paisley, Scotland) and maintained at 37° C. in a humidified atmosphere containing 5% CO2. 5-FU-resistant p53^+/+ and p53^−/− HCT116 cells were maintained in the presence of 2 μM and 4 μM 5-FU respectively. […] Prior to each experiment, resistant sub-lines were cultured in the absence of drug for 48 hours.

[3] = tested on: p53^+/+ oxaliplatin-resistant HCT116 cells; test: MTT cytotoxicity assay, p53^+/+ oxaliplatin-resistant HCT116 cells; format: cell-based, human; conditions: p53^+/+ oxaliplatin-resistant, MTT, 72 h; read-out: IC50(72 h)
Experimental: as §1, §2, §3

[4] = tested on: p53^+/+ CPT-11-resistant HCT116 cells; test: MTT cytotoxicity assay, p53^+/+ CPT-11-resistant HCT116 cells; format: cell-based, human; conditions: p53^+/+ CPT-11-resistant, MTT, 72 h; read-out: IC50(72 h)
Experimental: as §4

[5] = tested on: HCT116 p53^−/− parental cells; test: MTT cytotoxicity assay, HCT116 p53^−/− parental cells; format: cell-based, human
Experimental: as §1, §2, §3

[6] = tested on: p53^−/− 5-FU-resistant HCT116 cells; test: MTT cytotoxicity assay, p53^−/− 5-FU-resistant HCT116 cells; format: cell-based, human
Experimental: as §4

[7] = tested on: p53^−/− oxaliplatin-resistant HCT116 cells; test: MTT cytotoxicity assay, p53^−/− oxaliplatin-resistant HCT116 cells; format: cell-based, human; conditions: p53^−/− oxaliplatin-resistant, MTT, 72 h; read-out: IC50(72 h)
Experimental: as §1, §2, §3

[8] = tested on: p53^−/− CPT-11-resistant HCT116 cells; test: MTT cytotoxicity assay, p53^−/− CPT-11-resistant HCT116 cells; format: cell-based, human
Experimental: as §4

[9] = tested on: p53^+/+ HCT116 parental cells; test: Flow cytometry cell cycle/apoptosis, p53^+/+ HCT116 parental cells; format: cell-based, human; conditions: 72 hours
Experimental: (§5) Parental and drug-resistant HCT116 cell lines were grown in McCoy's 5A medium supplemented with 10% dialysed foetal calf serum (FCS), 50 μg/ml penicillin-streptomycin, 2 mM L-glutamine and 1 mM sodium pyruvate (all from GIBCO Invitrogen Corporation, Paisley, Scotland) and maintained at 37° C. in a humidified atmosphere containing 5% CO2. 5-FU-resistant p53^+/+ and p53^−/− HCT116 cells were maintained in the presence of 2 μM and 4 μM 5-FU respectively. […] Prior to each experiment, resistant sub-lines were cultured in the absence of drug for 48 hours.
(§6) Flow cytometry. Cells were seeded at 5×10^4 cells per well in 6-well plates. […] Seventy-two hours post-treatment, cells were harvested in 5 ml of 1× PBS/0.5 mM EDTA and pelleted by centrifugation at 1000 rpm/4° C. for 5 minutes. Cell pellets were washed once with 1× PBS/1% FCS, fixed in 70% ethanol and stained with propidium iodide. Analyses were performed on a Beckman Coulter Epics XL flow cytometer (Miami, Fla.).

[10] = tested on: p53^+/+ 5-FU-resistant HCT116 cells; test: Flow cytometry cell cycle/apoptosis, p53^+/+ 5-FU-resistant cells; format: cell-based, human; conditions: 72 hours
Experimental: as §5, §6

[11] = tested on: p53^−/− HCT116 parental cells; test: Flow cytometry cell cycle/apoptosis, p53^−/− HCT116 parental cells; format: cell-based, human; conditions: 72 hours
Experimental: as §5, §6

[12] = tested on: p53^−/− 5-FU-resistant HCT116 cells; test: Flow cytometry cell cycle/apoptosis, p53^−/− 5-FU-resistant cells; format: cell-based, human; conditions: 1 μM, 5 μM and 10 μM, relative to untreated control cells
Experimental: as §1
Flow cytometry. Cells were seeded at 5×10^4 cells per well in 6-well plates. After 48 hours, cells were treated with a range of concentrations of 5-FU, CPT-11 or oxaliplatin. Seventy-two hours post-treatment, cells were harvested in 5 ml of 1× PBS/0.5 mM EDTA and pelleted by centrifugation at 1000 rpm/4° C. for 5 minutes. […]

[13] = tested on: p53^−/− CPT-11-resistant HCT116 cells; test: Flow cytometry cell cycle/apoptosis, p53^−/− CPT-11-resistant cells; format: cell-based, human; conditions: p53^−/− CPT-11-resistant cell line, data not shown
p53^+/+ HCT116 cells = test: PARP cleavage immunoblotting, p53^+/+ HCT116 cells; format: cell-based, human; conditions: 5 μM, 48 hours, Western blot
Experimental: (§7) Immunoblotting. Cells, were seeded at 1×10^6 cells per plate in 90 mm tissue culture dishes. […] After 48 hours, cells were harvested and resuspended in 200 μl of 1× RIPA buffer (20 mM TRIS pH7.4, 150 mM NaCl, 1 mM EDTA pH8.0, 1% Triton X-100, 0.1% SDS). Cells were lysed and centrifuged at 13,200 rpm/4° C. for 15 minutes to remove cell debris.
(§8) Protein concentrations were determined using the BCA protein assay reagent (Pierce, Rockford, Ill.). Twenty micrograms of each protein sample were resolved by SDS-PAGE and transferred to a PVDF membrane by electroblotting. Immunodetection was performed using anti-PARP or anti-β-tubulin mouse monoclonal antibodies and a 1/2000 dilution of a horseradish peroxidase-conjugated sheep anti-mouse secondary antibody (Amersham, Buckinghamshire, England). The fluorescent signal was detected using the Super Signal chemiluminescent detection system (Pierce) according to the manufacturer's instructions.

p53^−/− HCT116 cells = test: PARP cleavage immunoblotting, p53^−/− HCT116 cells; format: cell-based, human; conditions: 5 μM, 48 hours, Western blot
Experimental: as §7, §8

resected stage III CRC = conditions: adjuvant 5-FU-based chemotherapy, patients with resected stage III CRC; cited from earlier work
advanced CRC = conditions: monotherapy; cited from earlier work

For `O=c1[nH]cc(F)c(=O)[nH]1` [5-FU], the IC50 [1] was 4.3 µM, the “increase in IC50 (72 hr) compared to parental cells” value (“increase in IC50 (72 hr)” for short) ([2]; p53^+/+ 5-FU-resistant vs p53^+/+ parental) was 3.0 fold and the IC50 ([2]; p53^+/+ 5-FU-resistant, MTT, 72 h, read-out: IC50(72 h)) was 12.7 µM. The IC50 [3] was 3.6 µM, the IC50 [4] was 4.2 µM and the IC50 ([5]; HCT116 p53^−/− parental, MTT, 72 h, read-out: IC50(72 h)) was 19.7 µM. For the same compound, the “increase in IC50 (72 h) dose in p53^−/− compared to p53^+/+ cells” value ([5]; parental HCT116 p53^−/− vs p53^+/+) was 4.6 fold, the “increase in IC50 (72 hr)” value ([6]; p53^−/− 5-FU-resistant vs p53^−/− parental) was 9.0 fold and the IC50 ([6]; p53^−/− 5-FU-resistant, MTT, 72 h, read-out: IC50(72 h)) was 178 µM. The IC50 [7] was 22 µM, the “increase in IC50 (72 hr)” value ([8]; p53^−/− CPT-11-resistant vs p53^−/− parental) was about 2 fold and the IC50 ([8]; p53^−/− CPT-11-resistant, MTT, 72 h, read-out: IC50(72 h)) was 47 µM. The cell cycle distribution ([9]; 1 μM) was “S-phase arrest and evidence of polyploidy”, the cell cycle distribution ([9]; 5 μM and 10 μM) was “arrested in G2/M-phase” and the sub-G0/G1 content ([9]; 5 μM and 10 μM, ~4% in control samples) was 30-35%. For the same compound, the cell cycle distribution ([10]; 1 μM) was “no change in cell cycle profile”, the cell cycle distribution ([10]; 5 μM and 10 μM) was “majority of cells had arrested at the G1/S boundary” and the “induction of apoptosis compared to parental cells” value ([10]; 5 μM and 10 μM) was “significantly reduced”. For the same compound, the cell cycle distribution ([11]; 1 μM) was “arrested in S-phase”, the cell cycle distribution ([11]; 5 μM and 10 μM) was “majority of p53^−/− parental cells had DNA content >4N” and the “drug-induced apoptosis in p53^−/− compared to p53^+/+ parental cells” value ([11]; range of concentrations) was “significantly less apoptosis”. For the same compound, the cell cycle distribution [12] was “no change in cell cycle profile”, the “cross-resistance examined using cell cycle analyses” value [13] was “no evidence of cross-resistance” and the PARP cleavage (p53^+/+ HCT116 cells) was “observed”. For the same compound, the PARP cleavage (p53^−/− HCT116 cells) was “not”, the “improvement of disease-free survival” value (resected stage III CRC) was 35% and the “improvement of overall survival” value (resected stage III CRC) was 22%. The response rates (advanced CRC) was 10 to 15%.
